Test results published in US20260271927A1, “PESTICIDALLY ACTIVE BICYCLIC COMPOUNDS” (SYNGENTA CROP PROTECTION AG, priority 2023, published 2026).

Key:
Type in all cases: in vivo
[1] = test system: Diabrotica balteata (Corn Root Worm); experiment: Diabrotica balteata (corn root worm), sprayed maize sprouts, L2 larvae; settings: 96 h, application rate of 200 ppm, 4 days after infestation, read-out: control in at least one of the two categories (mortality or growth inhibition)
Description: Maize sprouts placed onto an agar layer in 24-well microtiter plates were treated with aqueous test solutions prepared from 10′000 ppm DMSO stock solutions by spraying. After drying, the plates were infested with L2 larvae (6 to 10 per well). The samples were assessed for mortality and growth inhibition in comparison to untreated samples 4 days after infestation.

[2] = test system: Tetranychus urticae (Two-Spotted Spider Mite); experiment: Tetranychus urticae feeding/contact activity, bean leaf discs; settings: foliar, 192 h
Description: Bean leaf discs on agar in 24-well microtiter plates were sprayed with aqueous test solutions prepared from 10′000 ppm DMSO stock solutions. After drying the leaf discs were infested with a mite population of mixed ages. The samples were assessed for mortality on mixed population (mobile stages) 8 days after infestation.

[3] = test system: Chilo suppressalis (Striped Rice Stemborer); experiment: Chilo suppressalis (striped rice stemborer), artificial diet in 24-well plates, L2 larvae; settings: 144 h, application rate of 200 ppm, 6 days after infestation, read-out: control in at least one of the three categories (mortality, anti-feedant effect, or growth inhibition)
Description: 24-well microtiter plates with artificial diet were treated with aqueous test solutions prepared from 10′000 ppm DMSO stock solutions by pipetting. After drying, the plates were infested with L2 larvae (6-8 per well). The samples were assessed for mortality, anti-feeding effect, and growth inhibition in comparison to untreated samples 6 days after infestation. Control of Chilo suppressalis by a test sample is given when at least one of the categories mortality, anti-feedant effect, and growth inhibition is higher than the untreated sample.

[4] = test system: Myzus persicae (Green Peach Aphid); experiment: Myzus persicae feeding/contact activity, sunflower leaf discs; settings: foliar, 144 h, application rate of 200 ppm, 6 days after infestation
Description: Sunflower leaf discs were placed onto agar in a 24-well microtiter plate and sprayed with aqueous test solutions prepared from 10′000 ppm DMSO stock solutions. After drying, the leaf discs were infested with an aphid population of mixed ages. The samples were assessed for mortality 6 days after infestation.

[5] = test system: Myzus persicae (Green Peach Aphid); experiment: Myzus persicae intrinsic activity, sucrose solution under Parafilm; settings: 120 h, application rate of 12.5 ppm, 5 days after infestation, read-out: control (assessed for mortality)
Description: Test compounds prepared from 10′000 ppm DMSO stock solutions were applied by pipette into 24-well microtiter plates and mixed with sucrose solution. The plates were closed with a stretched Parafilm. A plastic stencil with 24 holes was placed onto the plate and infested pea seedlings were placed directly on the Parafilm. The infested plate was closed with a gel blotting paper and another plastic stencil and then turned upside down. The samples were assessed for mortality 5 days after infestation.

[6] = test system: Myzus persicae (Green Peach Aphid); experiment: Myzus persicae systemic activity, roots of pea seedlings in test solution; settings: 144 h, test rate of 24 ppm, 6 days after placing seedlings into test solutions
Description: Roots of pea seedlings infested with an aphid population of mixed ages were placed directly into aqueous test solutions prepared from 10′000 DMSO stock solutions. The samples were assessed for mortality 6 days after placing seedlings into test solutions.

[7] = test system: Myzus persicae (Green Peach Aphid); experiment: Myzus persicae feeding/contact activity, eggplant leaf discs; settings: foliar, 144 h, application rate of 200 ppm, 6 days after infestation, read-out: growth inhibition
Description: Eggplant leaf discs were placed onto agar in a 24-well microtiter plate and sprayed with aqueous test solutions prepared from 10′000 ppm DMSO stock solutions. After drying, the leaf discs were infested with an aphid population of mixed ages. The samples were assessed for mortality 6 days after infestation.

NC(=O)[C@H]1[C@@H]2CCCO[C@@H]21 (relative stereo) [Compound P1, rel-(1R,6R,7R)-2-oxabicyclo[4.1.0]heptane-7-carboxamide]
≥ 80%: percent control (mortality or growth inhibition) at 200 ppm [1] | mortality at 200 ppm [2]

NC(=O)[C@H]1[C@@H]2OCCO[C@@H]21 [Compound P5, (1α,6α,7α)-2,5-dioxabicyclo[4.1.0]heptane-7-carboxamide]
≥ 80%: percent control (mortality, anti-feedant effect or growth inhibition) at 200 ppm [3] | percent control (mortality or growth inhibition) at 200 ppm [1] | mortality at 200 ppm [4] | mortality at 12.5 ppm [5] | mortality at 24 ppm [6] | mortality at 200 ppm [7]
